Here are results for 2 compounds from patent publication US4694008A, “Chemical compounds” (Smith Kline & French Laboratories Limited, priority 1984, dated 1987).

The ED50 is the midpoint of the dose-response relation.

Assay [1] has as its system histamine H2 -receptors. Nature of the assay: inhibition of histamine-induced tachycardia in the isolated guinea pig right atrium. The text has this:
(§1) The measurement of inhibition of histamine-stimulated secretion of gastric acid from the lumen-perfused stomachs of rats anaesthetised with urethane, and the measurement of inhibition of histamine-induced tachycardia in the isolated guinea pig right atrium, are detailed in U.S. Pat. No. 4,385,058.

In assay [2] the target is T1, histamine H2 -receptors (Rattus norvegicus, UniProt P25102).
T1 construct: histamine-stimulated secretion of gastric acid from the lumen-perfused stomachs of rats anaesthetised with urethane; from tissue; host or cells: stomach of the anaesthetised rat (in vivo, lumen-perfused)
T1 sequence (P25102 whole entry, the tested form may be a part): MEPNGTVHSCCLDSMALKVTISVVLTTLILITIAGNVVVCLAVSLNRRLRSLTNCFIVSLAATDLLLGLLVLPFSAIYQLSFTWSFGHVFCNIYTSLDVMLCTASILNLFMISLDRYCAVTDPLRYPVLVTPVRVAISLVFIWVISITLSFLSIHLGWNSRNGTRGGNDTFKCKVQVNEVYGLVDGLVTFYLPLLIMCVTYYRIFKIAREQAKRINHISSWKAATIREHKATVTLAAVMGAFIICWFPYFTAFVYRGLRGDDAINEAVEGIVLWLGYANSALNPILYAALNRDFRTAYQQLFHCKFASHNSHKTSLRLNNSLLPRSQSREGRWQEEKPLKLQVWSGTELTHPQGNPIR
As to the kind of experiment: inhibition of histamine-stimulated secretion of gastric acid, lumen-perfused stomachs of rats anaesthetised with urethane. Format: in vivo. The following applies: iv, read-out: ED50 values in the lumen-perfused rat test.
Text: These are actions of histamine which, according to Ash and Schild, Brit. J. Pharmac. Chemother. 27 247 (1966), are not mediated by histamine H1 -receptors.
as §1

`O=c1[nH]c(CCCOc2cccc(CN3CCCCC3)c2)ncc1OCc1ccccc1` [Example 1, 2-[3-[3-(Piperidinomethyl)phenoxy]propyl]-5-benzyloxypyrimidin-4-one]: the “pA2 values in the guinea pig atrium test” value in assay [1] is “more than seven”. Besides, the ED50 in assay [2] was < 0.1 µmol/kg.

As for `COc1cnc(NCCCOc2cccc(CN3CCCCC3)c2)[nH]c1=O` [Example 5, 2-[3-[3-(Piperidinomethyl)phenoxy]propylamino]-5-methoxypyrimidin-4-one], the “pA2 values in the guinea pig atrium test” value in assay [1] was “more than seven”. Also, in assay [2], the ED50 is < 0.1 µmol/kg.
